In patent US10485844B2, “Methods for treating severe atopic dermatitis by administering an IL-4R inhibitor” (Regeneron Pharmaceuticals, Inc., priority 2016, dated 2019):

Columns and labels:
Type in all cases: in vivo, human
[1] = tested on: adults with moderate-to-severe AD; assay: 1-year placebo-controlled trial of dupilumab + TCS: subgroup analysis by CsA eligibility / CsA history; conditions: for proportion of patients achieving a 75% improvement in EASI / proportion of patients achieving a ≥4-point improvement in peak pruritus numerical rating scale / Patients achieving EASI-75, n (%) / Patients achieving a peak pruritus NRS score improvement ≥4 points from baseline, n/N1 (%): Week 52; for Patients achieving a peak pruritus NRS score improvement ≥4 points from baseline, n/N1 (%): baseline NRS ≥4
Protocol: Patients were randomized 3:1:3 (dupilumab 300 mg weekly [qw], every two weeks [q2w], or placebo). Patients received concomitant low and/or medium potency TCS, which could be tapered and discontinued based on clinical response. Topical calcineurin inhibitors could be used in areas considered inadvisable for TCS.
In further analysis, the efficacy and safety of dupilumab vs placebo (PBO) at 52 weeks was compared in two patient (pt) subsets of the population: pts who were earlier treated with CsA but responded inadequately or were intolerant to CsA (subset A; n=114) and the remaining study population (subset B; n=509). Subset A pts had, on average, more severe disease than subset B pts, as assessed by Eczema Area and Severity Index (EASI) (mean baseline±SD EASI score 37.0±12.70 vs 31.6±12.77; nominal p<0.0001 [post-hoc analysis]).

[2] = Functional dupilumab concentrations in serum, 52-week trial with TCS; conditions: Week 16
Protocol: The clinical trial was a 52-week randomized, multicenter, double-blind, placebo-controlled trial of subcutaneous dupilumab with concomitant topical corticosteroids (TCS) in 740 adult patients (NCT02260986) randomized 3:1:3 to placebo, dupilumab 300 mg every 2 weeks (q2w) and dupilumab 300 mg every week (qw); patients randomized to dupilumab received a loading dose of 600 mg. An open-label extension study of dupilumab 300 mg qw (NCT01949311) is ongoing in patients who participated in prior studies and results from 1076 patients treated for up to 68 weeks are also reported. This Example describes functional dupilumab concentrations measured in serum from blood samples at various time-points and analyzed using descriptive statistics.

[3] = Functional dupilumab concentrations in serum, two 16-week phase 3 monotherapy studies; conditions: for mean functional concentration of dupilumab in serum: monotherapy
Protocol: The studies were multicenter, randomized, double-blind, placebo-controlled studies of subcutaneously administered dupilumab in 1379 adult patients; each had duration of 16 weeks (NCT02277743 and NCT02277769). Patients were randomized 1:1:1 to placebo, dupilumab 300 mg every week (qw), and dupilumab 300 mg every 2 weeks (q2w); patients randomized to dupilumab received a loading dose of 600 mg. Presented here are functional dupilumab concentrations measured in serum from blood samples at various pharmacokinetic time-points and analyzed using descriptive statistics.

Substance: dupilumab: fully human anti-IL-4R antibody; heavy chain SEQ ID NO: 9, light chain SEQ ID NO: 10
- treatment-emergent adverse event (TEAE) rate ([1]; CSA-eligible, dupilumab q2w): 87.2%
- treatment-emergent adverse event (TEAE) rate ([1]; CSA-eligible, dupilumab qw): 81.7%
- treatment-emergent adverse event (TEAE) rate ([1]; CSA-ineligible, dupilumab q2w): 91.7%
- treatment-emergent adverse event (TEAE) rate ([1]; CSA-ineligible, dupilumab qw): 88.5%
- proportion of patients achieving a 75% improvement in EASI ([1]; CsA-eligible, dupilumab 300 mg q2w + TCS): 69.1%
- proportion of patients achieving a 75% improvement in EASI ([1]; CsA-eligible, dupilumab 300 mg qw + TCS): 67.0%
- proportion of patients achieving a ≥4-point improvement in peak pruritus numerical rating scale ([1]; CsA-eligible, dupilumab q2w): 53.8%
- proportion of patients achieving a ≥4-point improvement in peak pruritus numerical rating scale ([1]; CsA-eligible, dupilumab qw): 39.7%
- proportion of patients achieving a 75% improvement in EASI ([1]; CsA-ineligible, dupilumab 300 mg q2w + TCS): 52.4%
- proportion of patients achieving a 75% improvement in EASI ([1]; CsA-ineligible, dupilumab 300 mg qw + TCS): 50.0%
- proportion of patients achieving a ≥4-point improvement in peak pruritus numerical rating scale ([1]; CsA-ineligible, dupilumab q2w): 42.9%
- proportion of patients achieving a ≥4-point improvement in peak pruritus numerical rating scale ([1]; CsA-ineligible, dupilumab qw): 35.6%
- Patients achieving EASI-75, n (%) ([1]; Subset A (inadequate response or intolerance to CsA), Dupilumab 300 mg Q2W ± TCS (N = 19)): (52.6) %
- Patients achieving a peak pruritus NRS score improvement ≥4 points from baseline, n/N1 (%) ([1]; Subset A, Dupilumab 300 mg Q2W ± TCS): (47.4) %
- Patients achieving EASI-75, n (%) ([1]; Subset A, Dupilumab 300 mg QW ± TCS (N = 43)): (48.8) %
- Patients achieving a peak pruritus NRS score improvement ≥4 points from baseline, n/N1 (%) ([1]; Subset A, Dupilumab 300 mg QW ± TCS): (38.1) %
- Patients achieving EASI-75, n (%) ([1]; Subset B (remaining study population), Dupilumab 300 mg Q2W ± TCS (N = 70)): (68.6) %
- Patients achieving a peak pruritus NRS score improvement ≥4 points from baseline, n/N1 (%) ([1]; Subset B, Dupilumab 300 mg Q2W ± TCS): (52.2) %
- Patients achieving EASI-75, n (%) ([1]; Subset B, Dupilumab 300 mg QW ± TCS (N = 227)): (67.0) %
- Patients achieving a peak pruritus NRS score improvement ≥4 points from baseline, n/N1 (%) ([1]; Subset B, Dupilumab 300 mg QW ± TCS): (39.1) %
- mean functional concentration of dupilumab in serum ([2]; 300 mg q2w (600 mg loading dose) with TCS): 80 mg/L
- mean functional concentration of dupilumab in serum ([2]; 300 mg qw (600 mg loading dose) with TCS): 185 mg/L
- ratio (qw:q2w) of mean functional concentrations ([3]; Week 16): 2.4
- mean functional concentration of dupilumab in serum ([3]; dupilumab 300 q2w (600 mg loading dose), Week 16): ~75 mg/L
- mean functional concentration of dupilumab in serum ([3]; dupilumab 300 qw (600 mg loading dose), Week 16): 180 mg/L
- share of the Week 12 Ctrough reached by Week 4 ([3]; q2w dose, 600 mg loading dose): ~80%
- share of the Week 12 Ctrough reached by Week 4 ([3]; qw dose): ~67%
